Data published in patent US20240382564A1, “Methods and Compositions for Treating Muscular Dystrophy and Memory Impairment” (Allysta Pharmaceuticals, Inc., priority 2023, published 2024).
Entries after “also recorded” stand apart in the source; their conditions may differ. Where no end group is shown, it is not given here. [ ]: non-standard residue; d: D form. Nva = CCC[C@H](N)C(=O)O

Experiments:
Type in all cases: in vivo, mouse
D2.mdx mice [1] = experiment: Mitochondrial respiration in permeabilized muscle fibre bundles; details: quadriceps and diaphragm; multiple substrate conditions; LD and HD
Experimental: D2.mdx mice were treated with ALY688 at two different dosages; high dose (HD; 15 mg/kg body weight/day) or low dose (LD; 3 mg/kg body weight/day) dissolved in saline. A separate group of mice were treated with saline alone (VEH, vehicle). Treatment was provided via subscapular subcutaneous injections from 7 days of age to 28-30 days. […] At 28-30 days of age, mice were anaesthetized with isoflurane vaporized in medical air (21% oxygen) at a 2 L/min flow rate. Due to tissue limitations in limb muscle, certain measures were performed separately in tibialis anterior and quadriceps across several phases of breeding. Following the treatment protocol, in situ quadriceps force assessments were then performed in one limb followed by removal of the quadriceps from the other limb for mitochondrial assessments, diaphragm for in vitro force assessments and finally other tissues for further processing as described below. […]
High resolution oxygen consumption (an index of mitochondrial respiration) was performed in 2 mL of MiRO5 supplemented with (creatine-dependent) or without (creatine independent) 20 mM creatine to saturate mitochondrial creatine kinase activity. O2 consumption was measured using the Oroboros Oxygraph-2K (Oroboros Instruments, Corp., Innsbruck, Austria) while stirring at 37° C. in the presence of 5 μM blebbistatin to prevent muscle fibre contraction by rigor in response to ADP. […]

D2.mdx mice [2] = experiment: Chamber-specific cardiac fibrosis, histopathological assessment
Experimental: D2.mdx mice were treated daily subcutaneously beginning at 7 days of age for 3 weeks at 1 μL/g with ALY688 at 15 mg/kg body weight (high dose drug; HD) or with a saline (VEH) control. Mice were compared to age-matched wildtypes (DBA/2J). […] However, ADP-stimulated respiration supported by pyruvate was increased in VEH (36%) and HD (46%) vs wildtype whereas HD had no effect vs VEH.

D2.mdx mice [3] = experiment: Novel object recognition test; details: 15 mg/kg b.w. daily, days 7 to 28 of age
Experimental: Male D2.mdx mice originated from a colony maintained at York University (Toronto, Canada) and sourced from Jackson Laboratories (Stock Number 013141, Bar Harbor, United States). Mice were treated daily from days 7 to 28 of age with ALY688 at 15 mg/kg b.w. (D2.mdx-ALY688) or saline control (D2.mdx-VEH). This age was chosen given it captures an early stage of disease progression in cardiac and skeletal muscle. Mice were sacrificed 20-24 hr after the last dose. Breeding of wildtype mice was unsuccessful. Instead, three-week-old wildtype DBA/2J WT mice (D2A) were obtained from Jackson Laboratories (Stock number 000671, Bar Harbor, United States) and allowed to acclimatize for one week before sacrifice. Mice were housed in standard 12:12-hr light:dark cycles and were allowed access to standard rodent chow and water ad libitum. 4 days prior to sacrifice, all groups underwent novel object recognition acclimatization and testing as described below. Mice were anesthetized under 5% isoflurane vaporized in medical air (21% oxygen) at a flow rate of 2 L/min and then maintained at 2-3% prior to euthanasia by exsanguination. […]
The novel object recognition test (NOR) was performed as previously described in literature. […] Sessions were recorded with a cell-phone video camera secured above the apparatus. […] Discrimination ratio (DR) was calculated as follows: DR=(Time(object 2)−Time(object 1))/Total time.

## [dN]IP[Nva]LY[dS]FA[dS]-NH2 [ALY688]
D2.mdx mice [1]
  ADP-stimulated respiration: generally no effect of either dose
D2.mdx mice [2]; HD 15 mg/kg s.c. daily for 3 weeks from 7 days of age
  left atrial fibrosis: completely rescued
D2.mdx mice [2]; HD 15 mg/kg s.c. daily for 3 weeks, VEH +385%
  right ventricular (RV) fibrosis: completely rescued
D2.mdx mice [3]
  recognition memory (discrimination index, NOR test): completely prevented; also recorded: improved recognition memory; also recorded: normalized
